The subject of one series is HIV-1 NL4-3. As to the kind of experiment: microbe, parasite or virus in culture. The class given is cell-based. As to the method: The anti-HIV-1 activities of compounds were evaluated in a variety of assays, including the TZM-bl assay, reporter virus assay, and PBMCs-based antiviral assay. In the TZM-bl assay, TZM-bl cells were plated at a density of 1 × 10^4 cells per well in 96-well tissue culture plates one day before infection. On the day of the experiment, the cell supernatant was removed, and 100 μL of each serially diluted compounds was added were added. HIV-1 NL4-3 in 50 μL of complete medium was then added to each well to achieve a multiplicity of infection (MOI) of 0.5. At 48 h post-infection, the luciferase activity in the cells was analyzed with the SteadyGlo reagent (Promega) according to manufacturer’s instructions. The luminescent signal was measured using the EnVison 2102 Multilabel Reader (Perkin Elmer).

Series [1] can be described thus: Cytotoxicity, CellTiter-Glo. Type of series: cell-based. The note with it: human; for CC50 at 6 days: PBMCs, mock-infected cell viability. As to the method:
(§1) The cytotoxicity of the tested compounds was evaluated in parallel with their antiviral assays using the CellTiter-Glo reagent (Promega) according to the manufacturer’s protocol. The 50% cytotoxic concentrations (CC50s) is the compound concentration that reduced cell viability by 50%.
(ATP-based viability assays read luminescence as a measure of living cells.)

A further series relates to PBMCs. As to the kind of experiment: Cytotoxicity, CellTiter-Glo. The class given is cell-based. As to the method: as §1
Another series has as its system TZM-bl cells. As to the kind of experiment: Cytotoxicity, CellTiter-Glo. Type of series: cell-based. The note with it: TZM-bl, all tested concentrations, in parallel with antiviral assay. The method, then:
as §1

In series [2] the test system is Tat-induced HIV-1 LTR activation. Put plainly: HIV-1 LTR-luciferase reporter assay, Tat-induced, TZM-bl cells. The class given is cell-based. The settings on record: pEF1-Tat transfection, 48 h. As to the method:
The effect of the test compounds on HIV-1 LTR promoter activity was evaluated using the luciferase reporter systems in both TZM-bl and Jurkat cells. TZM-bl cells seeded in 96-well plates (2 × 10^4 cells/well) were treated with either 10 ng/mL TNF-α (Sigma-Aldrich) or co-transfected with pEF1-Tat and pRL-TK (for transfection efficiency normalization) using Lipofectamine 2000 (Invitrogen). The cells were then cultured in the presence of various concentrations of the test compounds. After 24 h (TNF-α stimulation) or 48 h (Tat transfection) of incubation, luciferase activity was determined from cell lysates using the StedyGlo reagent (for TNF-α treated cells) or a dual luciferase assay system (Promega, for transfected cells) as recommended by the manufacturer.

Series [3] concerns Tat protein. Put plainly: Western blot of Tat steady-state level in transfected HeLa cells. The class given is cell-based, HIV-1 NL4-3. The method, then: (§2) (A) HeLa cells were transfected with pEF1-FLAG-Tat in the presence of increasing concentrations of triptolide. Cells were harvested 48 h post-transfection, and protein expression levels were determined by Western blotting. (B) HeLa cells were transfected either with pEF1-GFP (left) or pEF1-Tat-GFP (right) in the presence of increasing concentrations of triptolide. Cells were harvested 48 h post-transfection, and protein expression levels were determined by Western blotting.
(§3) Cells were washed with phosphate buffered saline (PBS) and lysed with radio immunoprecipitation assay lysis buffer supplemented with complete mini protease inhibitor cocktail (Roche) at 4°C for 1 h. Proteins from cell lysates were separated by SDS-PAGE and transferred to polyvinylidene difluoride membranes. After overnight incubation with primary antibodies at 4°C, each blot was probed with horseradish peroxidase-conjugated secondary antibody. Immunoreactive signals were detected with an enhanced chemiluminescence substrate (Thermo Scientific) using an AlphaEaseH FC Imaging System (Alpha Innotech Corporation).
A general note: A western blot detects proteins with antibodies after separation by electrophoresis.

Series [4] concerns T1, Tat protein.
T1 construct: expressed in transfected cells; host or cells: HeLa
The description is as above. Type of series: cell-based, HIV-1 NL4-3. The method, then:
as §2, §3

`CC(C)[C@]12O[C@H]1[C@@H]1O[C@]13[C@]1(O[C@H]1C[C@H]1C4=C(CC[C@@]13C)C(=O)OC4)[C@@H]2O` [triptolide]: in the series with HIV-1 NL4-3 (Human immunodeficiency virus 1, NL43, HIV-1 NL4-3, TZM-bl, luciferase, MOI 0.5, 48 h post-infection), the midpoint of the response, the EC50, lay at 0.32 nM. For the same compound, in the series on HIV-1 NL4-3 (at 5 nM, TZM-bl, HIV-1 NL4-3), the “reduction of luciferase expression” value is 97.9%. The selectivity ratio at 48 h in the series with HIV-1 NL4-3 (human, HIV-1 NL4-3, TZM-bl, read-out: SI (selective index, CC50/EC50)) turned out to be 79.4. The CC50 (as a rule, the concentration that lowers cell viability or growth by half) was determined as 13.9 nM in series [1] (Jurkat cells, mock-infected Jurkat cell viability) and 25.4 nM in series [1] (TZM-bl cells, mock-infected TZM-bl cell viability). Further, the CC50 at 6 days was 12.6 nM in series [1] (PBMC donor A), 15.3 nM in series [1] (PBMC donor B) and 11.2 nM in series [1] (PBMC donor C). In the series with PBMCs, the maximum non-toxic concentration is on record as 4 nM. Further, in the series on TZM-bl cells, the “toxicity in cell viability assay” value is reported as “no obvious toxicity”. Moreover, the “effect on Tat-induced reporter activity” value in series [2] is on record as “reduced Tat-induced reporter activity in a dose-dependent fashion”. The “effect on steady-state level of Tat mutants with deletion of acidic, cysteine or core region” value in the series with Tat protein [3] (FLAG-tagged deletion mutants, 48 h) is “completely aborted the activity of triptolide”. Besides, the “steady level of FLAG-Tat-NES” value with Tat protein [3] (NES from HIV-1 Rev fused to C-terminus of Tat) is reported as “remained unchanged”. For the same compound, the FLAG-Tat-SFV expression entry in the series on Tat protein [3] (basic domain replaced with NLS from SFV capsid) is given as “dose-dependently reduced”. Besides, the “action on nuclear versus cytoplasmic Tat Δ49–57” value in the series on Tat protein [4] (5 nM triptolide, nuclear/cytoplasmic fractionation, 48 h) is recorded as “only acted on Tat protein accumulated in nucleus”. The “effect on Tat mutant with deletion of basic region” value with Tat protein [4] (FLAG-Tat Δ49–57, 48 h) is “partially attenuated”. For the same compound, the “steady-state level of Tat protein” value in the series on Tat protein [4] (pEF1-FLAG-Tat, 48 h post-transfection, Western blotting) is reported as “reduced by triptolide in a dose-dependent manner”.
